Consider nine compounds from PubChem BioAssay (NCI).

Some test systems named below: HCT-116 colon; HT29 colon; MCF7 breast; NCI-H460 lung; NCI/ADR-RES ovarian; RXF 393 renal; SK-MEL-5 melanoma; SK-OV-3 ovarian; UACC-62 melanoma; EKVX NSCLC.
Common to all, as to experiment: NCI tumour cell line growth inhibition, 48 h

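Dose response: 5 concentrations. Exposure: 48 h. Format: 96-well plates. Endpoint: linear interpolation; highest concentration if not reached. GI50: concentration for 50% inhibition of growth. TGI: concentration producing complete growth inhibition.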 Some results are limits rather than exact numbers.

`c1ccc2c(-c3nc4ccccc4[nH]3)cccc2c1`: the GI50 was 3.47 µM in the experiment with HCT-116 colon; 2.68 µM in the experiment with HT29 colon; 2.94 µM in the experiment with MCF7 breast; 3.17 µM with NCI-H460 lung; 1.8 µM in the experiment with NCI/ADR-RES ovarian; 2.58 µM in the experiment on RXF 393 renal. In addition, the GI50 is 4.28 µM in the experiment with SK-MEL-5 melanoma, 4.04 µM in the experiment on SK-OV-3 ovarian and 1.99 µM in the experiment with UACC-62 melanoma. The TGI with HCT-116 colon is 96.8 µM; in the experiment with HT29 colon it was 11.8 µM; in the experiment with MCF7 breast, 37.9 µM; with NCI-H460 lung, 15.8 µM; in the experiment on NCI/ADR-RES ovarian, > 100 µM; with RXF 393 renal, 12 µM. Besides, the TGI came out at 72.4 µM with SK-MEL-5 melanoma, 27.3 µM in the experiment with SK-OV-3 ovarian and 27.3 µM with UACC-62 melanoma.
As for `N#Cc1c(NC(=O)c2cccc3ccccc23)sc2c1CCCC2`, the GI50 with EKVX NSCLC is 0.132 µM; with HCT-116 colon it was 0.0673 µM; in the experiment on HT29 colon, 0.0716 µM; with MCF7 breast it was 0.09 µM; in the experiment with NCI-H460 lung, 0.0785 µM; in the experiment on NCI/ADR-RES ovarian, 0.0128 µM. The figures for the GI50 with RXF 393 renal, in the experiment with SK-MEL-5 melanoma and in the experiment on UACC-62 melanoma were 0.0331 µM, 0.0844 µM and 0.018 µM, respectively. Besides, the TGI is > 25 µM with EKVX NSCLC; 5.37 µM with HCT-116 colon; 0.224 µM with HT29 colon; > 25 µM in the experiment with MCF7 breast; > 25 µM in the experiment on NCI-H460 lung; 0.117 µM in the experiment on NCI/ADR-RES ovarian. Also, the results for the TGI with RXF 393 renal, in the experiment with SK-MEL-5 melanoma and with UACC-62 melanoma were 0.121 µM, 1.62 µM and > 25 µM, respectively.
For `CN(C)c1ccc(/C=C/c2ccnc3ccccc23)cc1N`, the TGI turned out to be 22.4 µM in the experiment with EKVX NSCLC; 17.7 µM in the experiment with HT29 colon; 8.29 µM in the experiment on MCF7 breast; 22.3 µM in the experiment on NCI-H460 lung; 53.9 µM in the experiment with NCI/ADR-RES ovarian; 11.5 µM with SK-MEL-5 melanoma. The values for the TGI in the experiment with SK-OV-3 ovarian and with UACC-62 melanoma were 31.7 µM and 25.9 µM, respectively.
As for `CCCC(=O)Nc1cc([N+](=O)[O-])c([N+](=O)[O-])cc1OC`, the TGI in the experiment with EKVX NSCLC is 31.8 µM; in the experiment on HCT-116 colon, 32.3 µM; with HT29 colon, 29.3 µM; in the experiment with MCF7 breast, > 100 µM; in the experiment on NCI-H460 lung it was 35.4 µM; in the experiment with NCI/ADR-RES ovarian it was > 100 µM. In addition, the TGI in the experiment on SK-MEL-5 melanoma is 30.2 µM; in the experiment on SK-OV-3 ovarian, 26.8 µM; with UACC-62 melanoma it was 33.7 µM.
For the compound `COc1ccc2c(c1)C(=O)/C(=C/c1ccc([N+](=O)[O-])s1)O2`, the GI50 is 0.204 µM with HCT-116 colon; 0.502 µM in the experiment on HT29 colon; 0.344 µM with MCF7 breast; 0.411 µM in the experiment on NCI-H460 lung; 0.873 µM in the experiment with NCI/ADR-RES ovarian; 0.284 µM in the experiment on RXF 393 renal. Also, the GI50 is 0.326 µM with SK-MEL-5 melanoma, 2.68 µM with SK-OV-3 ovarian and 0.311 µM in the experiment on UACC-62 melanoma. In addition, the TGI in the experiment with HCT-116 colon is 0.401 µM; in the experiment with HT29 colon, 2.67 µM; with MCF7 breast, > 100 µM; in the experiment on NCI-H460 lung, 1.64 µM; in the experiment on NCI/ADR-RES ovarian, > 100 µM; in the experiment on RXF 393 renal, 0.926 µM. The TGI in the experiment on SK-MEL-5 melanoma was 1.04 µM; with SK-OV-3 ovarian, 7.77 µM; in the experiment with UACC-62 melanoma it was 1.16 µM.
On to `O=C1/C(=C/c2ccc([N+](=O)[O-])o2)Oc2ccccc21`, for which the GI50 in the experiment with HCT-116 colon was 0.332 µM; with HT29 colon, 0.613 µM; in the experiment on MCF7 breast it was 0.827 µM; in the experiment on NCI-H460 lung, 1.91 µM; in the experiment with NCI/ADR-RES ovarian, 3.08 µM; with RXF 393 renal, 1.61 µM. In addition, the GI50 with SK-MEL-5 melanoma was 1.69 µM; with SK-OV-3 ovarian it was 6.4 µM; in the experiment with UACC-62 melanoma, 1.47 µM. Also, the TGI was 1.36 µM in the experiment with HCT-116 colon; 2.84 µM in the experiment with HT29 colon; 3.11 µM in the experiment on MCF7 breast; 4.09 µM in the experiment with NCI-H460 lung; 11.7 µM in the experiment with NCI/ADR-RES ovarian; 3.24 µM with RXF 393 renal. Further, the TGI with SK-MEL-5 melanoma is 3.29 µM; in the experiment with SK-OV-3 ovarian, 18.2 µM; with UACC-62 melanoma, 2.93 µM.
With `NC(N)=N/N=C(/c1ccccc1)c1ccc(Cl)cc1`, the GI50 with HCT-116 colon was 4.71 µM; in the experiment with HT29 colon, 2.93 µM; in the experiment on MCF7 breast, 3.69 µM; in the experiment on NCI-H460 lung, 9.93 µM; with NCI/ADR-RES ovarian, 24.4 µM; in the experiment on RXF 393 renal, 12.3 µM. Also, the GI50 with SK-MEL-5 melanoma was 5.97 µM; in the experiment with SK-OV-3 ovarian, 39.7 µM; in the experiment on UACC-62 melanoma, 22.4 µM. Moreover, the TGI in the experiment on HCT-116 colon is 63.6 µM; in the experiment with HT29 colon, 24.9 µM; with MCF7 breast it was > 100 µM; with NCI-H460 lung, 44 µM; in the experiment on NCI/ADR-RES ovarian it was 85.9 µM; in the experiment on RXF 393 renal, 59.9 µM. Also, the TGI was 44.9 µM in the experiment with SK-MEL-5 melanoma, > 100 µM with SK-OV-3 ovarian and > 100 µM in the experiment on UACC-62 melanoma.
For the compound `O=C1Nc2ccccc2/C1=C/c1cn(C(=O)c2c(Cl)cccc2Cl)c2ccccc12`, the GI50 in the experiment on EKVX NSCLC is 2.83 µM; in the experiment on HCT-116 colon, 1.67 µM; with HT29 colon, 3.92 µM; in the experiment on NCI-H460 lung, 2 µM; in the experiment with NCI/ADR-RES ovarian, 3.4 µM; with RXF 393 renal, 4.14 µM. The GI50 is 7.52 µM with SK-MEL-5 melanoma, 8.35 µM with SK-OV-3 ovarian and 4.8 µM in the experiment with UACC-62 melanoma. Moreover, the TGI amounted to 16.3 µM in the experiment on EKVX NSCLC; 3.38 µM with HCT-116 colon; 14.9 µM in the experiment on HT29 colon; 3.97 µM in the experiment on NCI-H460 lung; 18 µM in the experiment with NCI/ADR-RES ovarian; 16.6 µM in the experiment on RXF 393 renal. For the same compound, the values for the TGI in the experiment on SK-MEL-5 melanoma, in the experiment on SK-OV-3 ovarian and in the experiment with UACC-62 melanoma were 20.4 µM, 56.5 µM and 19.9 µM, respectively.
Consider `CC(=O)c1c(O)ccc2c(C)c(C(=O)O)oc12`, for which the GI50 in the experiment with EKVX NSCLC, with HCT-116 colon, in the experiment on HT29 colon, with MCF7 breast, with NCI-H460 lung and in the experiment with NCI/ADR-RES ovarian was > 100 µM each time. In addition, the GI50 with RXF 393 renal is > 100 µM; with SK-MEL-5 melanoma it was > 100 µM; in the experiment on UACC-62 melanoma, 80.4 µM. In addition, the TGI in the experiment on EKVX NSCLC, with HCT-116 colon, in the experiment on HT29 colon, with MCF7 breast, with NCI-H460 lung and with NCI/ADR-RES ovarian was > 100 µM in each case. Also, the TGI in the experiment with RXF 393 renal, in the experiment with SK-MEL-5 melanoma and in the experiment on UACC-62 melanoma was > 100 µM throughout.
